Test results taken from the NIST ThermoML archive (doi:10.1021/je050513r).
Numbers after ± are expanded uncertainties.

Assay: refractive index (Na D-line) (dimensionless)
Details: 293.1 K; 101.33 kPa; Liquid; Standard Abbe refractometry

| refractive index | SMILES |
| --- | --- |
| 1.4344 ± 0.0007 | CCCCCCCCCCCCCCCC [hexadecane] |
| 1.4686 ± 0.0007 | CN1CCCC1=O [N-methylpyrrolidone] |

| SMILES | refractive index |
| --- | --- |
| Cc1cc(C)cc(C)c1 [1,3,5-trimethylbenzene] | 1.4992 ± 0.0007 |
